Results on seven compounds are retold here after patent US11540517B2, “Active compound combinations having insecticidal/acaricidal properties” (Bayer Aktiengesellschaft, priority 2017, dated 2023).

Each structure is given as a SMILES string.

Holding throughout (format): in vivo
Test [1] deals with Tetranychus urticae. Briefly: Tetranychus urticae - spray test OP-resistant. Particulars: mortality. Here is the method:
(§1) The expected efficacy of a given combination of two compounds is calculated as follows (see Colby, S. R., “Calculating Synergistic and antagonistic Responses of Herbicide Combinations”, Weeds 15, pp. 20-22, 1967): • If • X is the efficacy expressed in % mortality of the untreated control for test compound A at a concentration of m ppm respectively m g/ha, • Y is the efficacy expressed in % mortality of the untreated control for test compound B at a concentration of n ppm respectively n g/ha, • E is the efficacy expressed in % mortality of the untreated control using the mixture of A and B at m and n ppm respectively m and n g/ha, • then is
(§2) [formula] • If the observed insecticidal efficacy of the combination is higher than the one calculated as “E”, then the combination of the two compounds is more than additive, i.e. there is a synergistic effect.
Tetranyechus urticae—Spray Test OP-Resistant
Solvent: 78.0 parts by weight acetone
1.5 parts by weight dimethylformamide
Emulsifier: alkylarylpolyglycol ether
To produce a suitable preparation of active compound, 1 part by weight of active compound is mixed with the stated amount of solvents and is diluted with water, containing an emulsifier concentration of 1000 ppm, to the desired concentration. Further test concentrations are prepared by dilution with emulsifier containing water.
French bean (Phaseolus vulgaris) leaf disks infected with all instars of the two spotted spidermite (Tetranychus urticae), are sprayed with a preparation of the active ingredient of the desired concentration.
After the specified period of time, mortality in % is determined. 100% means all spider mites have been killed and 0% means none of the spider mites have been killed. The mortality values determined thus are recalculated using the Colby-formula (see above).

Test [2] relates to Spodoptera frugiperda. Briefly: Spodoptera frugiperda - spray test. The note with it: mortality. Here is the method: as §1, §2
Spodoptera frugiperda—Spray Test
(§3) Solvent: 7 parts by weight of dimethylformamide
(§4) Emulsifier: alkylaryl polyglycol ether
(§5) To produce a suitable preparation of active compound, 1 part by weight of active compound is mixed with the stated amount of solvent and is diluted with water, containing an emulsifier concentration of 1000 ppm, to the desired concentration. Further test concentrations are prepared by dilution with emulsifier containing water.
Cotton leaves (Gossypium hirsutum) are treated by being sprayed with the preparation of the active compound of the desired concentration and are infested with caterpillars of the fall army worm (Spodoptera frugiperda).
After the specified period of time mortality in % is determined. 100% means all the caterpillars have been killed and 0% means none of the caterpillars have been killed. The mortality values determined thus are recalculated using the Colby-formula (see above).

Test [3] has as its system Phaedon cochleariae. Briefly: Phaedon cochleariae - spray test. The note with it: mortality. Here is the method:
as §1, §2
Phaedon cochleariae—Spray Test
as §3, §4, §5
After the specified period of time mortality in % is determined. 100% means all the beetle larvae have been killed and 0% means none of the beetle larvae have been killed. The mortality values determined thus are recalculated using the Colby-formula (see above).

Test [4] deals with Aphis gossypii. Kind of test: Aphis gossypii - spray test. The note with it: 0.4 ppm, mortality. Here is the method:
as §1, §2
Aphis gossypii—Spray Test
as §3, §4
To produce a suitable preparation of active compound, 1 part by weight of active compound is mixed with the stated amount of solvent and is diluted with water, containing an emulsifier concentration of 1000 ppm, to the desired concentration. […]
After the specified period of time the mortality in % is determined. […] The mortality values determined thus are recalculated using the Colby-formula (see above).

Regarding `CN1COCN(Cc2cnc(Cl)s2)C1=N[N+](=O)[O-]` (mixture of isomers) [Thiametoxam, (EZ)-3-(2-chloro-1,3-thiazol-5-ylmethyl)-5-methyl-1,3,5-oxadiazinan-4-ylidene(nitro)amine], the “Efficacy in % after 2 days” value in test [1] (0.1 g ai/ha), in test [1] (0.4 g ai/ha) and in test [1] (1.6 g ai/ha) was 0% throughout.

On to `CNC(=N[N+](=O)[O-])NCC1CCOC1` (racemic) [Dinotefuran, (EZ)-(RS)-1-methyl-2-nitro-3-(tetrahydro-3-furylmethyl)guanidine], for which the “Efficacy in % after 6 days” value in test [1] (0.2 g ai/ha, after 6 days) is given as 0%.

On to `C/C(=N\C#N)N(C)Cc1ccc(Cl)nc1` [Acetamiprid, (E)-N^1-[(6-chloro-3-pyridyl)methyl]-N^2-cyano-N-methylacetamidine], for which the “Efficacy in % after 2 days” value in test [1] (0.4 g ai/ha) is 0%; in test [1] (1.6 g ai/ha), 0%; in test [1] (6.4 g ai/ha), 0%; in test [2] (48 ppm), 0%; in test [2] (96 ppm) it was 20%. Also, the “Efficacy in % after 3 days” value in test [2] (48 ppm) was 0%; in test [2] (96 ppm), 40%. Further, the “Efficacy in % after 6 days” value in test [2] (48 ppm) was 10%; in test [2] (96 ppm), 50%. In test [2] (96 ppm), the “Efficacy in % after 1 day” value came out at 10%.

Regarding `CN/C(=N\[N+](=O)[O-])NCc1cnc(Cl)s1` [Clothianidin, (E)-1-(2-chloro-1,3-thiazol-5-ylmethyl)-3-methyl-2-nitroguanidine], the “Efficacy in % after 1 day” value was 10% in test [3] (2 ppm), 45% in test [3] (8 ppm) and 10% in test [2] (48 ppm). The “Efficacy in % after 2 days” value amounted to 10% in test [3] (2 ppm) and 55% in test [3] (8 ppm). The “Efficacy in % after 3 days” value is 25% in test [3] (2 ppm), 60% in test [3] (4 ppm), 75% in test [3] (8 ppm) and 40% in test [2] (24 ppm).

Take `Cc1cc(F)c(N=C2SCC(=O)N2CC(F)(F)F)cc1[S+]([O-])CC(F)(F)F` (centres unmarked) [Cpd of formula (I)]: the “Efficacy in % after 2 days” value in test [1] (0.1 g ai/ha) turned out to be 0%; in test [3] (1 ppm) it was 0%; in test [3] (4 ppm) it was 10%; in test [2] (4.8 ppm), 0%; in test [2] (9.6 ppm) it was 0%. The “Efficacy in % after 1 day” value in test [3] (1 ppm), in test [3] (4 ppm), in test [2] (4.8 ppm) and in test [2] (9.6 ppm) was 0% throughout. In addition, the “Efficacy in % after 3 days” value is given as 0% in test [3] (1 ppm); 0% in test [3] (2 ppm); 10% in test [3] (4 ppm); 0% in test [2] (2.4 ppm); 0% in test [2] (4.8 ppm); 0% in test [2] (9.6 ppm). The “Efficacy in % after 6 days” value in test [2] (4.8 ppm) and in test [2] (9.6 ppm) was 0% throughout.

In the case of `O=C1C=C(N(Cc2ccc(Cl)nc2)CC(F)F)CO1` [Flupyradifurone, 4-[(6-chloro-3-pyridylmethyl)(2,2-difluoroethyl)amino]furan-2(5H)-one], the “Efficacy in % after 2 days” value in test [1] (0.4 g ai/ha), in test [1] (1.6 g ai/ha) and in test [1] (6.4 g ai/ha) was 0% in each case.

As for `O=[N+]([O-])N=C1NCCN1Cc1cnc(Cl)s1` [Imidaclothiz, (EZ)-1-(2-chloro-1,3-thiazol-5-ylmethyl)-N-nitroimidazolidin-2-ylideneamine], the “Efficacy in % after 2 days” value in test [1] (0.8 g ai/ha), in test [1] (3.2 g ai/ha) and in test [1] (12.8 g ai/ha) was 0% in each case. For the same compound, in test [4], the “Efficacy in % after 6 days” value stood at 20%.
